These are literature values, as cited in US20150040249A1, “Non-Human Animal Models of Depression and Methods of Use Thereof” (The Board of Trustees of the Leland Stanford Junior …, priority 2012, published 2015).

Each structure is given as a SMILES string.

For one data set, the system named is NMDAR. The note with it: humans; acute.
For data set [1] the following is noted: rats; in vivo electrophysiological recordings.

In the case of `CNC1(c2ccccc2Cl)CCCCC1=O` (centres unmarked) [ketamine], in the data set with NMDAR, the depression-like symptoms result is given as “can acutely improve depression-like symptoms”.

With `CNCCCN1c2ccccc2CCc2ccccc21` [desipramine], the “reduced bursting activity in depression models” value in data set [1] is “restored”.
